Five compounds from USRE42890E1, “Furazanobenzimidazoles” (Basilea Pharmaceutica AG, priority 2003, dated 2011) can be followed below.

SMILES strings stand for the structures.

In assay [1] the test system is Jurkat. Briefly: MTS proliferation assay, Jurkat. It is filed as cell-based, human. To be noted: 72 h incubation, read-out: MTS proliferation assay IC 50 Jurkat. An outline of the steps:
(§1)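 Cells were seeded 24 h before treatment and exposed to compound at 10, 3, 1 and 0.3 μM final for 72 h at 37 °C, 7.5% CO2 in RPMI-1640 with 5% or 10% FCS. Viability was read by MTS reagent (3 h) as absorbance at 492 nm.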
(In general: Formazan colour is commonly taken as a measure of viable cells.)

Assay [2] deals with HeLa. Briefly: MTS proliferation assay, HeLa. The class given is cell-based, human. Particulars: 72 h incubation, read-out: MTS proliferation assay IC 50 HeLa. In short, it runs like this:
as §1

In the next assay the test system is MRC5. Put plainly: MTS proliferation assay, MRC5. It is filed as cell-based. To be noted: MRC5, 72 h incubation; read-out: MTS proliferation assay IC 50 MRC5. An outline of the steps: (§2)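 Cells in RPMI-1640 with 5% or 10% FCS, 2-mercaptoethanol and glutamine were seeded 24 h before treatment with compound at final 10, 3, 1 and 0.3 μM. After 72 h at 37° C and 7.5% CO2, MTS reagent was added for 3 h and absorbance read at 492 nm.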

Assay [3] relates to Jurkat. Put plainly: PI staining for cell cycle distribution, Jurkat. It is filed as cell-based, human. Further details: key: 0: no effect; 1: weak effect; 2: strong effect. To be noted: Jurkat 3 μM, 24 h. As to the method:
(§3) Cell lines are cultured in RPMI-1640 tissue culture medium containing either 5% or 10% fetal calf serum, 0.05 mM 2-mercaptoethanol, 2 mM glutamine and penicillin/streptomycin 50 μg/ml (complete medium) (Sigma, Buchs, Switzerland). General growth conditions are 37° C. and 7.5% CO2.
(§4) The following human cell lines (either EGFP transfected or not) are being used: HeLa (ATCC: CCL-2), KB (ATCC: CCL-17), MCF7 (ATCC: HTB-22), SK-BR-3 (ATCC: HTB-30), SK-Mel 1 (ATCC: HTB-67), SK-Mel 28 (ATCC: HTB-72), PC-3 (ATCC: CRL-1435), SW 480 (ATCC: CCL-228), NCl-H460 (ATCC: HTB-177), NCl-H1792 (ATCC: CRL-5895), HT1080 (ATCC: CCL-21), Jurkat (ATCC: TIB-152), Ramos (ATCC: CRL-1596), Raji (ATCC: CCL-86), H9 (ATCC: HTB-176), Hut78 (ATCC: TIB-161), K562 (ATCC: CCL 243), HL-60 (ATCC: CCL 240), U-87MG (ATCC: HTB-14), HepG2 (ATCC: HB-8065), U-2 OS (ATCC: HTB-96), Saos-2 (ATCC: HTB-85), U937 (ATCC: CRL 1593), Hs 578T (ATCC: HTB 126), HBL-100 (ATCC: HTB 124), Molt-4 (ATCC: CRL 1582).
(§5) 1-2*10^5 cells are seeded into 24 well tissue culture plates and incubated for 24 h prior to compound addition. Compounds are added for 24 h in a final concentration of 3 μM or 10 μM. Adherent cells are harvested by trypsinization. The cell suspensions are fixed by adding 2 parts ice cold ethanol 100% while vortexing. Then the samples are stored for >2 h at −20° C. Subsequently the cells are washed with PBS once and resuspended in 250 μl PBS containing 50 μg/ml PI (Calbiochem # 537059), then the samples are incubated at 37° C. for 30 minutes and subsequently analyzed on a FACSCalibur™ monitoring linear PI fluorescence activity on FL2. The readout allows the detection of a possible direct or indirect influence of the tested compounds on the cell cycle. The following events can occur: a) Generation of a subG1 peak indicative for DNA fragmentation, b) increase of the cell population arrested in G2M phase. Both events are scored by 1 for weak and 2 for strong occurrence. 0 indicates no occurrence at all.

Assay [4] has as its system HeLa. Briefly: PI staining for cell cycle distribution, HeLa. It is filed as cell-based, human. The arrangement: key: 0: no effect; 1: weak effect; 2: strong effect. Particulars: HeLa 10 μM, 24 h. As to the method: as §3, §4, §5
Assay [5] concerns adherent cells or suspension cells. Put plainly: Hoechst 33342 nuclear staining (fraction of apoptotic nuclei). The class given is cell-based. Further details: key: 0 relating to no activity; 1 relating to weak activity comprising less than 70% of the cells; score 2 relating to strong activity comprising more than 70% of the cells.
The subject of another assay is Jily. Briefly: MTS proliferation assay, Jily. It is filed as cell-based. Particulars: 72 h incubation, read-out: MTS proliferation assay IC 50 Jily. An outline of the steps:
as §2

The test system of the next assay is HT1080. Put plainly: MTS proliferation assay, HT1080. The class given is cell-based, human. Particulars: HT1080, 72 h incubation; read-out: MTS proliferation assay IC 50 HT1080. In short, it runs like this: as §1
The mark [6] stands for this setting: cell population arrested in G2M phase.
Where [7] appears, read: subG1 peak indicative for DNA fragmentation.

`CON=C(Cn1c(-c2nonc2N)nc2ccccc21)c1ccc(Br)cc1` (mixture of isomers) [Example 30]: the IC50 in the assay with Jurkat [1], with HeLa [2] and with MRC5 was 0.1 to 1 µM each time. For the same compound, the results for the “PI staining for cell cycle distribution, G2M” value in the assay on Jurkat [3] (setting [6]) and in the assay with HeLa [4] (setting [6]) were 0 and 2, respectively. For the same compound, the “PI staining for cell cycle distribution, subG1” value in the assay with Jurkat [3] (setting [7]) and with HeLa [4] (setting [7]) was 0 in each case. For the same compound, the “Hoechst 33342 nuclear staining score” value in assay [5] (H460, conc 0.01 μm) is recorded as 0; in assay [5] (H460, conc 0.1 μm), 0; in assay [5] (H460, conc 1 μm), 0; in assay [5] (HeLa, conc 0.01 μm) it was 0; in assay [5] (HeLa, conc 0.1 μm) it was 0; in assay [5] (HeLa, conc 1 μm) it was 1 (1 relating to weak activity comprising less than 70% of the cells). The “Hoechst 33342 nuclear staining score” value in assay [5] (Jily, conc 0.01 μm) is recorded as 0; in assay [5] (Jily, conc 0.1 μm) it was 0; in assay [5] (Jily, conc 1 μm), 1 (1 relating to weak activity comprising less than 70% of the cells); in assay [5] (Jurkat, conc 0.01 μm), 0; in assay [5] (Jurkat, conc 0.1 μm) it was 0; in assay [5] (Jurkat, conc 1 μm), 2 (score 2 relating to strong activity comprising more than 70% of the cells). Besides, the “Hoechst 33342 nuclear staining score” value in assay [5] (MRC5, conc 0.01 μm) is given as 0; in assay [5] (MRC5, conc 0.1 μm), 0; in assay [5] (MRC5, conc 1 μm) it was 2 (score 2 relating to strong activity comprising more than 70% of the cells); in assay [5] (PBLs, conc 0.01 μm), 0; in assay [5] (PBLs, conc 0.1 μm) it was 0; in assay [5] (PBLs, conc 1 μm), 0.

Take `Cc1cc2nc(-c3nonc3N)n(CC(=O)c3ccccc3)c2cc1C` [Example 108]: the IC50 with Jurkat [1], with Jily, in the assay with HT1080, with HeLa [2] and in the assay with MRC5 was 0.1 to 1 µM in each case. In addition, the “Hoechst 33342 nuclear staining score” value in assay [5] (H460, conc 0.01 μm) was 0; in assay [5] (H460, conc 0.1 μm), 0; in assay [5] (H460, conc 1 μm), 1 (1 relating to weak activity comprising less than 70% of the cells); in assay [5] (HeLa, conc 0.01 μm), 0; in assay [5] (HeLa, conc 0.1 μm), 0; in assay [5] (HeLa, conc 1 μm), 0. Besides, the “Hoechst 33342 nuclear staining score” value is recorded as 0 in assay [5] (Jily, conc 0.01 μm); 0 in assay [5] (Jily, conc 0.1 μm); 2 (score 2 relating to strong activity comprising more than 70% of the cells) in assay [5] (Jily, conc 1 μm); 0 in assay [5] (Jurkat, conc 0.01 μm); 0 in assay [5] (Jurkat, conc 0.1 μm); 2 (score 2 relating to strong activity comprising more than 70% of the cells) in assay [5] (Jurkat, conc 1 μm). Besides, the “Hoechst 33342 nuclear staining score” value in assay [5] (MRC5, conc 0.01 μm) came out at 0; in assay [5] (MRC5, conc 0.1 μm), 0; in assay [5] (MRC5, conc 1 μm) it was 0; in assay [5] (PBLs, conc 0.01 μm), 0; in assay [5] (PBLs, conc 0.1 μm), 0; in assay [5] (PBLs, conc 1 μm), 0.

Turning to `Nc1nonc1-c1nc2ccccc2n1CC(=O)/C=C/c1ccc(Cl)cc1` [Example 118], the IC50 with Jurkat [1], with Jily, in the assay with HT1080, in the assay on HeLa [2] and with MRC5 was > 1 µM throughout. For the same compound, the “Hoechst 33342 nuclear staining score” value in assay [5] (H460, conc 0.01 μm) amounted to 0; in assay [5] (H460, conc 0.1 μm), 0; in assay [5] (H460, conc 1 μm), 0; in assay [5] (HeLa, conc 0.01 μm) it was 0; in assay [5] (HeLa, conc 0.1 μm), 0; in assay [5] (HeLa, conc 1 μm), 0. Besides, the “Hoechst 33342 nuclear staining score” value in assay [5] (Jily, conc 0.01 μm) is recorded as 0; in assay [5] (Jily, conc 0.1 μm), 0; in assay [5] (Jily, conc 1 μm), 1 (1 relating to weak activity comprising less than 70% of the cells); in assay [5] (Jurkat, conc 0.01 μm), 0; in assay [5] (Jurkat, conc 0.1 μm) it was 0; in assay [5] (Jurkat, conc 1 μm), 0. The “Hoechst 33342 nuclear staining score” value in assay [5] (MRC5, conc 0.01 μm) came to 0; in assay [5] (MRC5, conc 0.1 μm), 0; in assay [5] (MRC5, conc 1 μm), 0; in assay [5] (PBLs, conc 0.01 μm), 0; in assay [5] (PBLs, conc 0.1 μm), 0; in assay [5] (PBLs, conc 1 μm), 0.

For the compound `Cc1ccc(/C=C/C(=O)Cn2c(-c3nonc3N)nc3ccccc32)cc1` [Example 119], the IC50 in the assay with Jurkat [1], with Jily, with HT1080, in the assay with HeLa [2] and in the assay with MRC5 was > 1 µM each time. The “Hoechst 33342 nuclear staining score” value in assay [5] (H460, conc 0.01 μm) is listed as 0; in assay [5] (H460, conc 0.1 μm) it was 0; in assay [5] (H460, conc 1 μm), 0; in assay [5] (HeLa, conc 0.01 μm), 0; in assay [5] (HeLa, conc 0.1 μm) it was 0; in assay [5] (HeLa, conc 1 μm) it was 0. For the same compound, the “Hoechst 33342 nuclear staining score” value in assay [5] (Jily, conc 0.01 μm) was 0; in assay [5] (Jily, conc 0.1 μm), 0; in assay [5] (Jily, conc 1 μm) it was 0; in assay [5] (Jurkat, conc 0.01 μm), 0; in assay [5] (Jurkat, conc 0.1 μm), 0; in assay [5] (Jurkat, conc 1 μm), 0. Moreover, the “Hoechst 33342 nuclear staining score” value in assay [5] (MRC5, conc 0.01 μm) was determined as 0; in assay [5] (MRC5, conc 0.1 μm), 0; in assay [5] (MRC5, conc 1 μm), 0; in assay [5] (PBLs, conc 0.01 μm), 0; in assay [5] (PBLs, conc 0.1 μm), 0; in assay [5] (PBLs, conc 1 μm) it was 0.

`COc1cccc(/C=C/C(=O)Cn2c(-c3nonc3N)nc3ccccc32)c1` [Example 120]: the IC50 with Jurkat [1], with Jily, in the assay with HT1080, in the assay with HeLa [2] and in the assay with MRC5 was > 1 µM in each case. Further, the “Hoechst 33342 nuclear staining score” value in assay [5] (H460, conc 0.01 μm) came to 0; in assay [5] (H460, conc 0.1 μm) it was 0; in assay [5] (H460, conc 1 μm), 0; in assay [5] (HeLa, conc 0.01 μm) it was 0; in assay [5] (HeLa, conc 0.1 μm), 0; in assay [5] (HeLa, conc 1 μm), 0. Further, the “Hoechst 33342 nuclear staining score” value in assay [5] (Jily, conc 0.01 μm) was determined as 0; in assay [5] (Jily, conc 0.1 μm), 0; in assay [5] (Jily, conc 1 μm) it was 0; in assay [5] (Jurkat, conc 0.01 μm), 0; in assay [5] (Jurkat, conc 0.1 μm), 0; in assay [5] (Jurkat, conc 1 μm) it was 0. Further, the “Hoechst 33342 nuclear staining score” value was 0 in assay [5] (MRC5, conc 0.01 μm); 0 in assay [5] (MRC5, conc 0.1 μm); 0 in assay [5] (MRC5, conc 1 μm); 0 in assay [5] (PBLs, conc 0.01 μm); 0 in assay [5] (PBLs, conc 0.1 μm); 0 in assay [5] (PBLs, conc 1 μm).
